# Test results taken from US20120157396A1, “PYRAZINAMIDE FOR IMMUNOSTIMULATION AND THE TREATMENT OF LEISHMANIASES” (priority 2009, published 2012).
# Legend:
# L. major amastigotes = L. major amastigotes within J774 cells, parasite survival; format: cell-based
# Description: To distinguish between leishmaniostatic and leishmanicidal effects, a time course survival curve was generated for J774 cultures infected with L. major.
# Amastigotes were generated by infecting J774 murine macrophages. Infections were carried after seeding cells in 8-well Labtek chambers (Thermo Physic Scientific, Rochester N.Y.) at a concentration of 5×10^4 cells/well. To avoid multiplication, cells were incubated with mitomycin C at a concentration of 0.8 μg/ml for 16 h. Infective-stage promastigotes (metacyclics) of L. major were isolated from stationary cultures (4-5 day-old) by Ficoll enrichment, added to macrophage cultures (5 promastigotes: 1 cell) and kept overnight at 37° C. in the presence of 5% CO2 and DMEM with 10% FCS. Sixteen hours later, non-internalized promastigotes were then washed and replaced by culture medium containing the drug. Forty-eight hours later, wells were detached from the slides, stained with Diff-Quick (Dade Behring, Newark, Del.) and counted under light microscope. Parasite burden was determined by observation under light microscopy (1000×) as the number of amastigotes per one hundred J774 cells. Percentage of survival of amastigotes and MIC50 were calculated as above.
# uninfected J774 cells = format: cell-based
# Description: The potential cytotoxicity of PZA toward the mammalian cell line was determined by co-incubation of PZA with uninfected J774 cells for 48 h (10^4 cells/well) in 96-well culture plates. […] At 200 μg/ml, the compound started to show signs of toxicity, resulting in mortality of 25% of the cell monolayer. […] The control drug amphotericin B caused 5% mortality of the cell monolayer at the concentration tested (1 μg/ml).
# J774 cell viability following incubation with PZA was also determined. Cells were seeded onto 8-well Labtek chambers as above and incubated with different concentrations of PZA (up to 1 mg/ml) for 48 h, stained with Diff-Quick and counted under light microscope. The percentage of viable cells was determined after quantifying the number of cells present per field (in 25 fields, ca. 500 cells). Percentage of survival and MIC50 were calculated as above.
# J774 cells = experiment: Cytokine (ELISA) and nitric oxide (Griess test) production in J774 cells; format: cell-based, murine; conditions: amphotericin B at the doses tested (0.1-1 μg/ml)
# Description: The ability of J774 cells to produce cytokines in response to infection and/or treatment was also determined. Cells were infected, treated or activated as described above. The amount of the proinflammatory cytokines IL-12 and TNF-α (implicated in Thl response and parasite killing), as well as the repressive cytokine IL-10, was determined by ELISA in the culture supernatants. The level of nitric oxide was also determined in the same supernatants. PZA treatment alone increased cytokine production, especially IL-12 and TNF-α and NO release. […] Finally, to test the specificity of the immune activation by PZA, we determined the effect that amphotericin B treatment had on activation and cytokine expression by J774 cells.
# J774 cells or bone marrow-derived cells were seeded onto 24-well plates at a concentration of 5×10^5 cells/ml. Twenty-four hours later, PZA was added to the wells at different concentrations in the absence or presence of L. major (1:5 parasite ratio). In some experiments, J774 cells were treated with amphotericin B (0.1, 0.5, or 1 μg/ml). Two control groups were also included in this experiment: a positive control of activation consisting in a group of uninfected cells treated with 100 ng/ml LPS and 10 IU IFN-γ as a positive control of activation, and a negative control of activation, consisting in uninfected, untreated cells. Cell cultures were maintained overnight, and then cultured for an additional 6 h with brefeldin A (10 μg/ml), harvested by scraping and fixed in 2% paraformaldehyde. Prior to staining, cells were incubated with an anti-Fc III/II receptor and 10% normal mouse serum (NMS) in PBS containing 0.1% BSA, 0.01% NaN3. Cells were permeabilized with saponin and stained for the surface markers CD80 (clone 16-10A1), CD86 (clone GL1), MHCI (clone 28-14-8), MHCII (clone M5/114.15.2) and for the cytokines IL-12p40/p70 (clone C17.8) and IL-10 (clone JESS-16E3). Incubations were carried out for 30 min on ice. All antibodies were purchased from BD Biosciences or eBioscience. For each sample, at least 50,000 cells were analyzed. The data were collected and analyzed using CELLQuest software and a FACScalibur flow cytometer (Becton Dickinson, San Jose, Calif.).
# L. major promastigotes = experiment: L. major promastigote drug treatment, parasite survival after 48 h; format: cell-based
# Description: The effect of PZA was first investigated with promastigotes of L. major. PZA was diluted in medium and added to cultures. After 48 h, parasite multiplication was determined by counting parasites in culture. […] Incubation of L. major with 1 μg/ml amphotericin B (as a positive control) caused 100% mortality of promastigotes and 90% of amastigotes.
# Mid-log phase (day 3 of culture) L. major promastigotes were employed. Parasite concentration was adjusted to 10^6 promastigotes/ml and seeded into 96-well plates in a volume of 100 μl (final concentration, 10^5 promastigotes/well). PZA was tested in triplicate in a concentration gradient from 1,000-0.5 μg/ml and added to the wells containing the parasite in a volume of 100 μl. A negative control was included with three wells containing only parasites and medium. The positive control consisted of amphotericin B (1 μg/ml). This concentration was previously employed by us because this concentration is equivalent to drug concentrations achieved in human plasma. After 48 h of incubation at 26° C., 10 μL of each well was diluted in 90 μL of the vital colorant (trypan blue in PBS) and the parasites were quantified in a Neubauer chamber. Data was normalized as percentage of survival compared to untreated controls. The Lethal Dose 50 (LD50) was extrapolated from the graph as the concentration of the products that inhibited the parasitic growth at 50% of the values of the negative control.
Compound,MIC50 reduced relative to PZA (L. major amastigotes; L. major amastigotes within J774 cells) [fold],MIC50 for PZA analogs (L. major amastigotes; L. major amastigotes within J774 cells (Table Ia)) [μM],mortality of amastigotes (L. major amastigotes; 1 μg/ml amphotericin B) [%],"percentage of survival compared to untreated control (L. major amastigotes; amastigote in J774, Amphotericin B 1 μg/ml, 48 h) [%]","elimination of parasites from macrophage cultures (L. major amastigotes; amphotericin B 0.1 μg/ml, infected cells)",mortality of the cell monolayer (uninfected J774 cells; amphotericin B 1 μg/ml) [%],"percentage of survival compared to untreated control (uninfected J774 cells; uninfected J774 cells, Amphotericin B 1 μg/ml, 48 h) [%]",activation and cytokine expression of J774 cells (J774 cells),mortality of promastigotes (L. major promastigotes; 1 μg/ml amphotericin B) [%],"percentage of survival compared to untreated control (L. major promastigotes; promastigote, Amphotericin B 1 μg/ml, 48 h) [%]"
NC(=O)c1cnc(F)cn1 [5-Fl PZA],100,0.08,–,–,–,–,–,–,–,–
"C[C@@H]1[C@H](O)[C@@H](C)/C=C/C=C/C=C/C=C/C=C/C=C/C=C/[C@H](O[C@@H]2O[C@H](C)[C@@H](O)[C@H](N)[C@@H]2O)C[C@@H]2O[C@](O)(C[C@@H](O)C[C@@H](O)[C@H](O)CC[C@@H](O)C[C@@H](O)CC(=O)O[C@H]1C)C[C@H](O)[C@H]2C(=O)O [Amphotericin B, amphotericin B]",–,–,90,10 ± 5,total elimination of parasites,5,95 ± 16,did not result in activation,100,0
